# Test system: HeLa S3 cells
# Test: HeLa S3 Cell Growth Inhibition Test
# Type: cell-based
# Conditions: Homo sapiens, HeLa S3, 72 h, HeLa S3; 72 hours incubation; Neutral Red; read-out: IC50, HeLa S3 cell growth inhibition
# Procedure: In each well of a 96-well microtiter plate was placed 0.1 mL of HeLa S3 cells having a concentration of 8×10^3 cells/mL and prepared in an MEM culture medium containing 10% fetal bovine serum and 2 mM glutamine. After the cells were incubated overnight at 37° C. in a carbon dioxide incubator, a test compound suitably diluted with a medium was added to the wells in an amount of 0.05 mL for each well. The cells were incubated at 37° C. for 72 hours in a carbon dioxide incubator. After the culture supernatant was removed, 0.1 mL of a culture medium containing 0.02% Neutral Red was added to each well. The cells were then incubated at 37° C. for 1 hour in a carbon dioxide incubator to dye the cells. After the culture supernatant was removed, each residue was rinsed once with physiological saline and the pigment was extracted with 0.001 N hydrochloric acid/30% ethanol. The absorbance at 550 nm of each extract was measured with a microplate reader. The drug concentration required for the 50% inhibition of cell growth, which is referred to as IC50, was calculated by comparing the absorbance for untreated cells with those for cells treated with the drug in known concentrations.
row,SMILES,IC50 [nM]
1,CC(=O)OCc1oc(=O)oc1CSC(=O)C(C)(O)C12CC/C(C)=C/C(O)C(=O)/C=C/C=C\c3csc(n3)C(C)N(C(=O)C1)[S+]2[O-] (stereo not shown) [Compound 90],130
2,CC(=O)OCc1oc(=O)oc1CSC(=O)C(C)(O)C12CC/C(C)=C/C(OC3CCCCO3)C(=O)/C=C/C=C\c3csc(n3)C(C)N(C(=O)C1)[S+]2[O-] (stereo not shown) [Compound 91],51
3,CC(=O)NCC(=O)OCc1oc(=O)oc1CSC(=O)C(C)(O)C12CC/C(C)=C/C(O)C(=O)/C=C/C=C\c3csc(n3)C(C)N(C(=O)C1)[S+]2[O-] (stereo not shown) [Compound 97],120
4,COCCOCCOCC(=O)OCc1oc(=O)oc1CSC(=O)C(C)(O)C12CC/C(C)=C/C(OC3(OC)CCOCC3)C(=O)/C=C/C=C\c3csc(n3)C(C)N(C(=O)C1)[S+]2[O-] (stereo not shown) [Compound 103],26
5,COCCOCCOCCOCC(=O)OCc1oc(=O)oc1CSC(=O)C(C)(O)C12CC/C(C)=C/C(OC3CCCCO3)C(=O)/C=C/C=C\c3csc(n3)C(C)N(C(=O)C1)[S+]2[O-] (stereo not shown) [Compound 104],20
6,COC(=O)OCc1oc(=O)oc1CSC(=O)C(C)(O)C12CC/C(C)=C/C(OC3CCCCO3)C(=O)/C=C/C=C\c3csc(n3)C(C)N(C(=O)C1)[S+]2[O-] (stereo not shown) [Compound 106],11
7,C=C(CSC(=O)C(C)(O)C12CC/C(C)=C/C(OC3(OC)CCOCC3)C(=O)/C=C/C=C\c3csc(n3)C(C)N(C(=O)C1)[S+]2[O-])C(=O)OC (stereo not shown) [Compound 113],42
8,C=C(CSC(=O)C(C)(O)C12CC/C(C)=C/C(O)C(=O)/C=C/C=C\c3csc(n3)C(C)N(C(=O)C1)[S+]2[O-])C(=O)O (stereo not shown) [Compound 115],> 10000
9,C=C(CSC(=O)C(C)(O)C12CC/C(C)=C/C(OC3(OC)CCOCC3)C(=O)/C=C/C=C\c3csc(n3)C(C)N(C(=O)C1)[S+]2[O-])C(=O)O (stereo not shown) [Compound 116],8500
10,CCC/C=C(\CSC(=O)C(C)(O)C12CC/C(C)=C/C(OC3(OC)CCOCC3)C(=O)/C=C/C=C\c3csc(n3)C(C)N(C(=O)C1)[S+]2[O-])C(=O)OC (stereo not shown) [Compound 119],870
11,CC1=C(CSC(=O)C(C)(O)C23CC/C(C)=C/C(O)C(=O)/C=C/C=C\c4csc(n4)C(C)N(C(=O)C2)[S+]3[O-])C(=O)OC(C)(C)O1 (stereo not shown) [Compound 121],1500
12,CC1=C(CSC(=O)C(C)(O)C23CC/C(C)=C/C(O)C(=O)/C=C/C=C\c4csc(n4)C(C)N(C(=O)C2)[S+]3[O-])C(=O)OC2(CCOCC2)O1 (stereo not shown) [Compound 124],960

# Same assay, conditions: Homo sapiens, HeLa S3, 72 h, read-out: IC50, HeLa S3 cell growth inhibition, HeLa S3; 72 hours incubation; Neutral Red
row,SMILES,IC50 [nM]
1,C/C1=C\C(OC2CCCCO2)C(=O)/C=C/C=C\c2csc(n2)C(C)N2C(=O)CC(C(C)(O)C(=O)SCc3oc(=O)oc3COC=O)(CC1)[S+]2[O-] (stereo not shown) [Compound 89],41
2,C/C1=C\C(OC2CCCCO2)C(=O)/C=C/C=C\c2csc(n2)C(C)N2C(=O)CC(C(C)(O)C(=O)SCc3oc(=O)oc3COC(=O)CN(C)C)(CC1)[S+]2[O-] (stereo not shown) [Compound 92],2.7
3,C/C1=C\C(OC2CCCCO2)C(=O)/C=C/C=C\c2csc(n2)C(C)N2C(=O)CC(C(C)(O)C(=O)SCc3oc(=O)oc3COC(=O)c3cccnc3)(CC1)[S+]2[O-] (stereo not shown) [Compound 93],9.2
4,C/C1=C\C(OC2CCCCO2)C(=O)/C=C/C=C\c2csc(n2)C(C)N2C(=O)CC(C(C)(O)C(=O)SCc3oc(=O)oc3COC(=O)CCC(=O)O)(CC1)[S+]2[O-] (stereo not shown) [Compound 95],27
5,C/C1=C\C(O)C(=O)/C=C/C=C\c2csc(n2)C(C)N2C(=O)CC(C(C)(O)C(=O)SCc3oc(=O)oc3COC(=O)C(C)(C)NC(=O)OC(C)(C)C)(CC1)[S+]2[O-] (stereo not shown) [Compound 96],29
6,C/C1=C\C(OC2CCCCO2)C(=O)/C=C/C=C\c2csc(n2)C(C)N2C(=O)CC(C(C)(O)C(=O)SCc3oc(=O)oc3COC(=O)Oc3ccc([N+](=O)[O-])cc3)(CC1)[S+]2[O-] (stereo not shown) [Compound 107],21
7,CCCCNC(=O)OCc1oc(=O)oc1CSC(=O)C(C)(O)C12CC/C(C)=C/C(OC3CCCCO3)C(=O)/C=C/C=C\c3csc(n3)C(C)N(C(=O)C1)[S+]2[O-] (stereo not shown) [Compound 108],13
8,C/C1=C\C(OC2CCCCO2)C(=O)/C=C/C=C\c2csc(n2)C(C)N2C(=O)CC(C(C)(O)C(=O)SCc3oc(=O)oc3COC(=O)N3CCN(C)CC3)(CC1)[S+]2[O-] (stereo not shown) [Compound 109],52
9,C/C1=C\C(OC2CCCCO2)C(=O)/C=C/C=C\c2csc(n2)C(C)N2C(=O)CC(C(C)(O)C(=O)SCc3oc(=O)oc3COC(=O)NCCO)(CC1)[S+]2[O-] (stereo not shown) [Compound 110],22
10,C=C(CSC(=O)C(C)(O)C12CC/C(C)=C/C(O)C(=O)/C=C/C=C\c3csc(n3)C(C)N(C(=O)C1)[S+]2[O-])C(=O)OC (stereo not shown) [Compound 111],20
11,C=C(CSC(=O)C(C)(O)C12CC/C(C)=C/C(O)C(=O)/C=C/C=C\c3csc(n3)C(C)N(C(=O)C1)[S+]2[O-])C(=O)N1CCCCC1 (stereo not shown) [Compound 117],2100
12,CCC/C=C(\CSC(=O)C(C)(O)C12CC/C(C)=C/C(O)C(=O)/C=C/C=C\c3csc(n3)C(C)N(C(=O)C1)[S+]2[O-])C(=O)OC (stereo not shown) [Compound 118],580
13,COC(=O)/C(=C/c1ccccc1)CSC(=O)C(C)(O)C12CC/C(C)=C/C(O)C(=O)/C=C/C=C\c3csc(n3)C(C)N(C(=O)C1)[S+]2[O-] (stereo not shown) [Compound 120],270

# Same assay, conditions: Homo sapiens; HeLa S3; 72 hours incubation; Neutral Red; read-out: IC50, HeLa S3 cell growth inhibition
row,SMILES,IC50 [nM]
1,CC[Si](CC)(CC)OCc1oc(=O)oc1CSC(=O)C(C)(O)C12CC/C(C)=C/C(O)C(=O)/C=C/C=C\c3csc(n3)C(C)N(C(=O)C1)[S+]2[O-] (stereo not shown) [Compound 75],240
2,CC[Si](CC)(CC)OCc1oc(=O)oc1CSC(=O)C(C)(O)C12CC/C(C)=C/C(OC3CCCCO3)C(=O)/C=C/C=C\c3csc(n3)C(C)N(C(=O)C1)[S+]2[O-] (stereo not shown) [Compound 76],260
3,CC[Si](CC)(CC)OC[C@H]1OC(OCc2oc(=O)oc2CSC(=O)C(C)(O)C23CC/C(C)=C/C(O)C(=O)/C=C/C=C\c4csc(n4)C(C)N(C(=O)C2)[S+]3[O-])C[C@@H](O[Si](CC)(CC)CC)[C@@H]1O[Si](CC)(CC)CC (stereo partly shown) [Compound 81],210
4,CCOC(=O)N1CCC2(CC1)OC(=O)C(CSC(=O)C(C)(O)C13CC/C(C)=C/C(O)C(=O)/C=C/C=C\c4csc(n4)C(C)N(C(=O)C1)[S+]3[O-])=C(C)O2 (stereo not shown) [Compound 126],5500

# Test system: Sarcoma 180 mouse solid tumor
# Test: Antitumor activity against Sarcoma 180 mouse solid tumor
# Type: in vivo, mouse (ddY)
# Conditions: Sarcoma-180, iv, 168 h, read-out: T/C (tumor volume ratio treated/control)
# Procedure: To a ddY mouse were intraperitoneally transplanted 5×10^6 sarcoma 180 cells. On the seventh day from the transplant, the cells were collected from the ascites, washed once with sterilized physiological saline, and then diluted with sterilized physiological saline to prepare a cell suspension having a concentration of 5×10^7 cells/mL. This suspension was transplanted in an amount of 0.01 mL to a subcutaneous part of the right axilla of each of male ddY mice each weighing 20±1 g.
# A test compound was dissolved in physiological saline containing polyoxyethylene sorbitan monolaurate. At 24 hours after the tumor transplant, 0.2 mL of the solution was intravenously administered to the tail of each of a group of five mice.
SMILES,response vs control in vivo at 2 mg/kg [%],response vs control in vivo at 8 mg/kg [%],response vs control in vivo at 4 mg/kg [%],response vs control in vivo at 16 mg/kg [%],response vs control in vivo at 32 mg/kg [%]
COC(=O)[C@H](CCC(=O)OCSC(=O)C(C)(O)C12CCC(C)=CC(O)C(=O)C=CC=Cc3csc(n3)C(C)N(C(=O)C1)[S+]2[O-])NC(=O)C1(C)COC(C)(C)OC1 (stereo partly shown) [Compound 27],46,,,,
COCCOCCOCCOCCOCCOCC(=O)OCSC(=O)C(C)(O)C12CC/C(C)=C/C(O)C(=O)/C=C/C=C\c3csc(n3)C(C)N(C(=O)C1)[S+]2[O-] (stereo not shown) [Compound 37],,36,,,
C/C1=C\C(O)C(=O)/C=C/C=C\c2csc(n2)C(C)N2C(=O)CC(C(C)(O)C(=O)SCOC(=O)CCCNC(=O)C3(C)COC(C)(C)OC3)(CC1)[S+]2[O-] (stereo not shown) [Compound 138],,,34,,
C/C1=C\C(O)C(=O)/C=C/C=C\c2csc(n2)C(C)N2C(=O)CC(C(C)(O)C(=O)SCOC(=O)CCCNC(=O)[C@@]34O[C@@H](CO)[C@@H](O)[C@@H]3OC(C)(C)O4)(CC1)[S+]2[O-] (stereo partly shown) [Compound 141],,,31,,
C/C1=C\C(O)C(=O)/C=C/C=C\c2csc(n2)C(C)N2C(=O)CC(C(C)(O)C(=O)SCOC(=O)OCCN3CCCC3=O)(CC1)[S+]2[O-] (stereo not shown) [Compound 146],,,38,,
COCCOCCOCCOCC(=O)OCSC(=O)C(C)(O)C12CC/C(C)=C/C(O)C(=O)/C=C/C=C\c3csc(n3)C(C)N(C(=O)C1)[S+]2[O-] (stereo not shown) [Compound 147],43,,,,
COCCOCCOCCOC(=O)OCSC(=O)C(C)(O)C12CC/C(C)=C/C(O)C(=O)/C=C/C=C\c3csc(n3)C(C)N(C(=O)C1)[S+]2[O-] (stereo not shown) [Compound 149],,42,,,
C/C1=C\C(O)C(=O)/C=C/C=C\c2csc(n2)C(C)N2C(=O)CC(C(C)(O)C(=O)SCc3oc(=O)oc3CO[C@@H]3C[C@@H](O)[C@H](O)[C@@H](CO)O3)(CC1)[S+]2[O-] (stereo partly shown) [Compound 152],,,,17,
C/C1=C\C(O)C(=O)/C=C/C=C\c2csc(n2)C(C)N2C(=O)CC(C(C)(O)C(=O)SCc3oc(=O)oc3CO[C@@H]3C[C@H](O)[C@@H](O)[C@H](C)O3)(CC1)[S+]2[O-] (stereo partly shown) [Compound 154],,,40,,
C/C1=C\C(O)C(=O)/C=C/C=C\c2csc(n2)C(C)N2C(=O)CC(C(C)(O)C(=O)SCc3oc(=O)oc3CO[C@H]3C[C@H](O)[C@@H](O)[C@H](C)O3)(CC1)[S+]2[O-] (stereo partly shown) [Compound 155],,37,,,
C/C1=C\C(OC2CCCCO2)C(=O)/C=C/C=C\c2csc(n2)C(C)N2C(=O)CC(C(C)(O)C(=O)SCc3oc(=O)oc3COC(=O)CN(C)C)(CC1)[S+]2[O-] (stereo not shown) [Compound 159],,,,,33
